From ChEMBL document CHEMBL3259722, “MT1 and MT2 melatonin receptors: ligands, models, oligomers, and therapeutic potential” (J Med Chem, 2014) come the findings set out here.

Series [1] deals with T1, Melatonin receptor type 1A (Homo sapiens, UniProt P48039). Briefly: Antagonist activity at MT1 receptor (unknown origin) assessed as cAMP accumulation. The format is functional. Background: Cyclic AMP is a second messenger, typically raised through Gs and lowered through Gi signalling.
Series [2] has as its target T1, Melatonin receptor type 1A. The experiment in a line: Displacement of [125I]2-iodomelatonin from human MT1 receptor expressed in CHO cells. Type of series: cell-based.
Series [3] addresses T2, Melatonin receptor type 1B (Homo sapiens, UniProt P49286).
T2 sequence (P49286 whole entry): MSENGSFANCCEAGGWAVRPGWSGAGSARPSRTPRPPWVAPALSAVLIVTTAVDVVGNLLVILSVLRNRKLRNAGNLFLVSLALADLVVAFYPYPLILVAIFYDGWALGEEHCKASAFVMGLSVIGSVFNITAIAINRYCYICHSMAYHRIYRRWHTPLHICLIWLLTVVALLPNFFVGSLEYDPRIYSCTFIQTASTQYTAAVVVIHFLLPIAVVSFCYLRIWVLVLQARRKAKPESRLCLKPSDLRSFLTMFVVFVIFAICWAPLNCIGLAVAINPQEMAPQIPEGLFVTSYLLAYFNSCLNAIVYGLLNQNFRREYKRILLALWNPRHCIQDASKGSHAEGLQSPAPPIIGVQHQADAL
Briefly: Displacement of [125I]2-iodomelatonin from human MT2 receptor expressed in CHO cells. The format is cell-based. (In general: Loss of bound radioactivity is the signal in a displacement assay; it reports binding, not function.)

For series [4], the target named is T2, Melatonin receptor type 1B. The experiment in a line: Agonist activity at MT2 receptor (unknown origin) expressed in mouse NIH3T3 cells assessed as inhibition of forskolin-induced cAMP accumulation. The format is functional, cell-based.
For series [5], the species on record is Homo sapiens. The experiment in a line: Selectivity ratio of Ki for MT1 receptor (unknown origin) to Ki for MT2 receptor (unknown origin).
Series [6] addresses T2, Melatonin receptor type 1B. The experiment in a line: Displacement of [125I]2-iodomelatonin from MT2 receptor (unknown origin) expressed in HEK293 cells. The format is cell-based.
For series [7], the species on record is Homo sapiens. The experiment in a line: Selectivity ratio of Ki for human recombinant MT1 receptor to Ki for human recombinant MT2 receptor.
For series [8], the species on record is Homo sapiens. The experiment in a line: Selectivity ratio of Ki for human MT2 receptor to Ki for human MT1 receptor.
The target of series [9] is T2, Melatonin receptor type 1B. The experiment in a line: Displacement of [125I]2-iodomelatonin from human recombinant MT2 receptor expressed in African green monkey COS7 cells. The format is cell-based, COS-7.
For series [10], the target named is T1, Melatonin receptor type 1A. The experiment in a line: Antagonist activity at MT1 receptor (unknown origin) expressed in mouse NIH3T3 cells by [35S]GTPgammaS binding assay. The format is functional. In general terms: Binding of GTPγS marks nucleotide exchange on a G protein.
The target in series [11] is T2, Melatonin receptor type 1B. Briefly: Antagonist activity at MT2 receptor (unknown origin) expressed in mouse NIH3T3 cells by [35S]GTPgammaS binding assay. The format is functional.
Series [12] in a line: Partial agonist activity at melatonin receptor in chicken brain membranes assessed as cAMP level. Type of series: cell membranes, Gallus gallus, Membrane.
Series [13] addresses T1, Melatonin receptor type 1A. The experiment in a line: Agonist activity at MT1 receptor (unknown origin) expressed in mouse NIH3T3 cells assessed as inhibition of forskolin-induced cAMP accumulation. The format is functional, cell-based.
Series [14] concerns the target T2, Melatonin receptor type 1B. Briefly: Binding affinity to MT2 receptor (unknown origin) expressed in HEK cells. Type of series: cell-based, HEK293.
The species entered for series [15] is Homo sapiens. The experiment in a line: Selectivity ratio of Ki for MT2 receptor (unknown origin) to Ki for MT1 receptor (unknown origin).
For series [16], the target named is T1, Melatonin receptor type 1A. Briefly: Binding affinity to MT1 receptor (unknown origin) expressed in HEK cells. Type of series: cell-based, HEK293.
The target of series [17] is T1, Melatonin receptor type 1A. The experiment in a line: biochemical.
A further series concerns the target CYP3A4 (Homo sapiens, UniProt P08684). Briefly: Half life of the compound assessed as CYP3A4 (unknown origin)-mediated drug metabolism. Type of series: ADME.
Series [18] deals with T1, Melatonin receptor type 1A. Briefly: Binding affinity to MT1 receptor (unknown origin) expressed in HEK293 cells. The format is cell-based.
Series [19] concerns the target T2, Melatonin receptor type 1B. Briefly: Binding affinity to MT2 receptor (unknown origin) expressed in HEK293 cells. The format is cell-based.

T1 sequence (P48039 whole entry): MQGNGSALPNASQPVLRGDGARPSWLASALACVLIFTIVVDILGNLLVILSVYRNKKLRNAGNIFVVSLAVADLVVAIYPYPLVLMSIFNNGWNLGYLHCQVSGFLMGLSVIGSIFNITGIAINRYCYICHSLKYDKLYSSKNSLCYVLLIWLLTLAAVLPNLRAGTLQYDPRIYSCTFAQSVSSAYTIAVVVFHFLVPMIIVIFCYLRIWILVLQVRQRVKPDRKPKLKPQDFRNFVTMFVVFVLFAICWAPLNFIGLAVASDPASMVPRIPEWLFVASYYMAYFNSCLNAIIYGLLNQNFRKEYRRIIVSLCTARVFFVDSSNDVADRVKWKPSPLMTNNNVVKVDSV
CYP3A4, sequence (P08684 whole entry): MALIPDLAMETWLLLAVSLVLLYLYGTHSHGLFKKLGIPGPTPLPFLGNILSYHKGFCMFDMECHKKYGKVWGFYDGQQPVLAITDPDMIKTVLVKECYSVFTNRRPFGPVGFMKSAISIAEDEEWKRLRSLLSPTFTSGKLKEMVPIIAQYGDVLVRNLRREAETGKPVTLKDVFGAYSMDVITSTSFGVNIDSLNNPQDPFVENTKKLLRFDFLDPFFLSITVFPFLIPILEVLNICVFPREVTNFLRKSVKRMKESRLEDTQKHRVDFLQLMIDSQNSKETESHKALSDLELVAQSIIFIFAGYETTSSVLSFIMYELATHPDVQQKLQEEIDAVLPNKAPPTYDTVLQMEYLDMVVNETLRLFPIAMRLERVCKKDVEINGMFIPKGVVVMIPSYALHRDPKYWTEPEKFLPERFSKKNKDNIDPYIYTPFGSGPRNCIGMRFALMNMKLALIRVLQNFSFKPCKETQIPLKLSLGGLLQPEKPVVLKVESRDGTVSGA

For `COc1cc2c(cc1OC)C(CC(c1ccccc1)c1ccccc1)N(C(C)=O)CC2` (stereo unspecified), the IC50 (commonly the point on the concentration scale where inhibition reaches its midpoint) in series [1] was > 1000 nM.

On to `CC(=O)NCCc1cccc2ccc(-c3ccc4cccc(CCNC(C)=O)c4c3)cc12`, for which the Ki (as a rule, the equilibrium dissociation constant of an inhibitor or competing ligand from its target) came to 5.2 nM in series [2] and 246 nM in series [3].

On to `CC(=O)NCCN(C)c1cccc(OCCCCc2ccccc2)c1`, for which the Ki in series [4] came out at 91.2 nM.

Take `COc1cccc(Cc2oc3ccc(OC)cc3c2CCNC(C)=O)c1`: the Ratio Ki in the series listed under Homo sapiens [5] was found to be 123. In [6], this molecule had a Ki of 0.33 nM.

Consider `CCCC(=O)NCCc1c2n(c3ccc(OC)cc13)Cc1ccccc1-2`, for which, in the series listed under Homo sapiens [7], the Ratio Ki was 89.

Take `COc1ccc2[nH]c(Cc3ccccc3)c(CCNC(C)=O)c2c1`: the Ratio Ki in the series filed under Homo sapiens [7] was 130.

Regarding `CC(=O)NCCc1cccc2ccc(OCCCOc3ccc4cccc(CCNC(C)=O)c4c3)cc12`, the inhibitory constant (Ki) in [2] turned out to be 3.9 nM; in series [3], 149 nM. Besides, in the series listed under Homo sapiens [8], the Ratio Ki was 3.

With `COc1cc2c(CCNC(C)=O)c(C)[nH]c2cc1Cl`, in [9], the Ki was 2.2 nM.

On to `COc1ccc2c(c1)C(CNC(C)=O)Cc1ccccc1C2` (stereo unspecified), for which the Ki in [10] stood at 27 nM; in series [11], 1.3 nM.

`CCCC(=O)NCCCc1cccc2c1OCCO2`: in [12], the Ki worked out at 2.4 nM.

As for `CC(=O)NCCc1c[nH]c2ccc(OCCCOc3ccccc3)cc12`, the Ki in [2] was found to be 7.9 nM; in [3], 87 nM. In addition, in the series listed under Homo sapiens [8], the Ratio Ki was found to be 10.

With `CCOC(=O)c1[nH]c2ccc(OC)c3c2c1[C@@H](CNC(C)=O)CC3`, the figures for the Ki in series [13] and in series [4] were 0.18 nM and 0.29 nM, respectively.

With `CCCCCCOc1ccc2c(c1)C(CCNC(C)=O)CCO2` (stereo unspecified), the Ki in series [2] stood at 3.4 nM; in series [14] it was 29 nM; in series [16] it was 1.2 nM; in [3], 21.4 nM. In the series listed under Homo sapiens [15], the Ratio Ki was 25.

As for `CC(=O)NCCc1c(Cc2ccccc2)[nH]c2ccccc12`, in the series filed under Homo sapiens [7], the Ratio Ki is 15.

With `COc1cc2c(cc1OC)C(CCc1ccccc1)N(C(C)=O)CC2` (stereo unspecified), the IC50 in series [1] is > 1000 nM.

Consider `COc1cc2[nH]cc(CCNC(C)=O)c2cc1OC`, for which the Ratio Ki in the series filed under Homo sapiens [7] is 60. Further, the Ki in series [9] is 3.5 nM; in series [17], 207 nM.

For the molecule `CC(=O)NCCc1c[nH]c2ccc(OCCCc3ccccc3)cc12`, the Ki worked out at 3.9 nM in series [2] and 49 nM in series [3]. Moreover, in the series filed under Homo sapiens [8], the Ratio Ki was 10.

On to `CCC(=O)NC1Cc2ccccc2C(c2ccccc2)C1` (racemic), for which the Ratio Ki in the series listed under Homo sapiens [7] came out at 330. This molecule also returned a Ki in series [17] of 501 nM.

In the case of `CCCC(=O)NCCc1c2n(c3ccc(OC)cc13)CCCc1ccccc1-2`, the Ratio Ki in the series filed under Homo sapiens [7] was determined as 132.

On to `COc1ccc2oc(Cc3ccccc3)c(CCNC(C)=O)c2c1`, for which, in the series listed under Homo sapiens [5], the Ratio Ki was 23.

For the molecule `COc1ccc2[nH]cc(CCNC(C)=O)c2c1` [MELATONIN], the half-life (usually how long it takes for the measured level to halve) on CYP3A4 was found to be 20 min.

Turning to `C=CCC(=O)NCCc1c(Cc2cccc(OC)c2)oc2ccc(OC)cc12`, the Ratio Ki in the series filed under Homo sapiens [5] was 192.

With `O=C(NCCCc1cccc2nc(CCCCc3ccccc3)oc12)C1CC1`, in the series filed under Homo sapiens [8], the Ratio Ki amounted to 35.

For `CC(=O)NCCc1cccc2ccc(OCCCCOc3ccc4cccc(CCNC(C)=O)c4c3)cc12`, the Ki in [2] turned out to be 3.1 nM; in series [3], 167 nM. For the same molecule, the Ratio Ki in the series listed under Homo sapiens [8] was 54; in the series listed under Homo sapiens [15], 122.

For the molecule `CCCNC(=O)CCCc1cccc2c1SCCO2`, the IC50 came to 2.3 nM in series [18] and 6.7 nM in series [19].
